Our source for the Activity values is ChEMBL document CHEMBL4334438, “Discovery of novel glycogen synthase kinase-3α inhibitors: Structure-based virtual screening, preliminary SAR and biological evaluation for treatment of acute myeloid leukemia” (Eur J Med Chem, 2019).

SMILES strings stand for the structures.

In experiment [1] the test system is Phosphorylase b kinase gamma catalytic chain, liver/testis isoform (Homo sapiens), P15735 [F290L]. Description: Inhibition of recombinant human PhKgamma2 F290L mutant (1 to 301 residues) assessed as residual activity at 1 uM using KKLNRTLSFAEPG as substrate measured after 40 mins in presence of [gamma33P]ATP by scintillation counting method relative to control.

Experiment [2] has as its target Rhodopsin kinase GRK7 (Homo sapiens) (UniProt Q8WTQ7). Description: Inhibition of recombinant full length human GRK7 assessed as residual activity at 1 uM using casein as substrate at 40 mins in presence of [gamma-33ATP] by scintillation counting based radiometry assay relative to control.
Experiment [3] deals with Fibroblast growth factor receptor 1 (Homo sapiens) (UniProt P11362). The experiment is described as follows: Inhibition of recombinant human FGFR1 (456 to 765 residues) assessed as residual activity at 1 uM using KKKSPGEYVNIEF as substrate at 40 mins in presence of [gamma-33ATP] by scintillation counting based radiometry assay relative to control.
Experiment [4] has as its target FKBP12A/mTOR (Homo sapiens) (UniProt P62942+P42345). Description: Inhibition of recombinant full length human mTOR/FKBP12 assessed as residual activity at 1 uM measured after 40 mins in presence of [gamma33P]ATP by scintillation counting based radiometry assay relative to control. The experiment is classed as protein-complex assay.
In experiment [5] the target is Mitogen-activated protein kinase kinase kinase 2 (Homo sapiens) (UniProt Q9Y2U5). Description: Inhibition of recombinant full length human MEKK2 assessed as residual activity at 1 uM using myelin basic protein as substrate incubated for 40 mins in presence of [gamma-33ATP by scintillation counting based radiometry assay relative to control.
The target in experiment [6] is Activin receptor type-1 (Homo sapiens) (UniProt Q04771). Description: Inhibition of human ALK2 (147 to end residues) assessed as residual activity at 1 uM using casein as substrate incubated for 40 mins in presence of [gamma-33ATP] by scintillation counting based radiometry assay relative to control.
Experiment [7] addresses NUAK family SNF1-like kinase 1 (Homo sapiens) (UniProt O60285). Description: Inhibition of recombinant human ARK5 (2 to end residues) assessed as residual activity at 1 uM using KKKVSRSGLYRSPSMPENLNRPR as substrate incubated for 40 mins in presence of [gamma-33ATP] by scintillation counting based radiometry assay relative to control.
The target in experiment [8] is Mitogen-activated protein kinase kinase kinase 5 (Homo sapiens) (UniProt Q99683). The experiment is described as follows: Inhibition of recombinant human ASK1 (649 to 946 residues) assessed as residual activity at 1 uM using myelin basic protein as substrate incubated for 40 mins in presence of [gamma-33ATP] by scintillation counting based radiometry assay relative to control.

In experiment [9] the target is Serine/threonine-protein kinase tousled-like 1 (Homo sapiens) (UniProt Q9UKI8). Description: Inhibition of recombinant full-length human TLK1 at 1 uM assessed as residual activity at 1 uM using casein as substrate measured after 40 mins in presence of [gamma33P]ATP by scintillation counting method relative to control.
Experiment [10] has as its target Myosin light chain kinase 2, skeletal/cardiac muscle (Homo sapiens) (UniProt Q9H1R3). Description: Inhibition of recombinant full-length human MYLK2 at 1 uM using KKLNRTLSFAEPG as substrate measured after 40 mins in presence of [gamma33P]ATP by scintillation counting method relative to control. Also on record: scale not given: the % may be the effect or the level left.

In experiment [11] the target is Serine/threonine-protein kinase/endoribonuclease IRE1 (Homo sapiens) (UniProt O75460). The experiment is described as follows: Inhibition of human IRE1 activated (465 to end residues) assessed as residual activity at 1 uM using myelin basic protein as substrate after 40 mins by [gamma-33ATP] radiometric assay relative to control.
The subject of experiment [12] is Macrophage colony-stimulating factor 1 receptor (Homo sapiens), P07333 [Y969C]. The experiment is described as follows: Inhibition of recombinant human FMS Y969C mutant (538 to end residues) assessed as residual activity at 1 uM using EEEEYEEEEEEYYIIEEEEEEYEEEEEEYYEEEEEEKKKK as substrate at 40 mins in presence of [gamma-33ATP] by scintillation counting based radiometry assay relative to control.

Experiment [13] addresses Eukaryotic translation initiation factor 2-alpha kinase 3 (Homo sapiens) (UniProt Q9NZJ5). Description: Inhibition of human PEK (536 to end residues) assessed as residual activity at 1 uM using RSRSRSRSRSRSRSR as substrate measured after 40 mins in presence of [gamma33P]ATP by scintillation counting method relative to control.
Experiment [14] has as its target Insulin receptor-related protein (Homo sapiens) (UniProt P14616). The experiment is described as follows: Inhibition of human IRR (943 to 1266 residues) assessed as residual activity at 1 uM using myelin basic protein as substrate after 40 mins by [gamma-33ATP] radiometric assay relative to control.
Experiment [15] concerns the target Dual specificity protein kinase CLK3 (Homo sapiens) (UniProt P49761). Description: Inhibition of recombinant full length human CLK3 assessed as residual activity at 1 uM using ERMRPRKRQGSVR as substrate incubated 40 mins in presence of [gamma-33ATP] by scintillation counting based radiometry assay relative to control.
Experiment [16] addresses Serine/threonine-protein kinase Sgk3 (Homo sapiens) (UniProt Q96BR1). Description: Inhibition of recombinant human SGK3 (119 to end residues) assessed as residual activity at 1 uM using GRPRTSSFAEGKK as substrate measured after 40 mins in presence of [gamma33P]ATP by scintillation counting method relative to control.
Experiment [17] concerns the target Death-associated protein kinase 2 (Homo sapiens) (UniProt Q9UIK4). The experiment is described as follows: Inhibition of recombinant full length human DAPK2 assessed as residual activity at 1 uM Calmodulin as substrate incubated 40 mins in presence of [gamma-33ATP] by scintillation counting based radiometry assay relative to control.
In experiment [18] the test system is Serine/threonine-protein kinase N1 (Homo sapiens), Q16512 [V901I]. Description: Inhibition of recombinant human PRK1 V901I mutant (498 to end residues) assessed as residual activity at 1 uM using KKLNRTLSFAEPG as substrate measured after 40 mins in presence of [gamma33P]ATP by scintillation counting method relative to control.
Experiment [19] has as its system Mast/stem cell growth factor receptor Kit (Homo sapiens), P10721 [V654A]. The experiment is described as follows: Inhibition of recombinant human C-Kit V654A mutant (544 to end residues) assessed as residual activity at 1 uM poly(Glu, Tyr) 4:1 as substrate incubated 40 mins in presence of [gamma-33ATP] by scintillation counting based radiometry assay relative to control.

Experiment [20] relates to Tyrosine-protein kinase ABL1 (Homo sapiens), P00519 [Q252H]. The experiment is described as follows: Inhibition of human ABL1 Q252H mutant (27 to end residues) assessed as residual activity at 1 uM using EAIYAAPFAKKK as substrate incubated for 40 mins in presence of [gamma-33ATP] by scintillation counting based radiometry assay relative to control.
Experiment [21] has as its target Vascular endothelial growth factor receptor 2 (Homo sapiens) (UniProt P35968). The experiment is described as follows: Inhibition of human KDR (790 to end residues) assessed as residual activity at 1 uM using myelin basic protein as substrate after 40 mins by [gamma-33ATP] radiometric assay relative to control.

Sequence of NUAK family SNF1-like kinase 1 (Homo sapiens) (O60285 whole entry, the tested form may be a part): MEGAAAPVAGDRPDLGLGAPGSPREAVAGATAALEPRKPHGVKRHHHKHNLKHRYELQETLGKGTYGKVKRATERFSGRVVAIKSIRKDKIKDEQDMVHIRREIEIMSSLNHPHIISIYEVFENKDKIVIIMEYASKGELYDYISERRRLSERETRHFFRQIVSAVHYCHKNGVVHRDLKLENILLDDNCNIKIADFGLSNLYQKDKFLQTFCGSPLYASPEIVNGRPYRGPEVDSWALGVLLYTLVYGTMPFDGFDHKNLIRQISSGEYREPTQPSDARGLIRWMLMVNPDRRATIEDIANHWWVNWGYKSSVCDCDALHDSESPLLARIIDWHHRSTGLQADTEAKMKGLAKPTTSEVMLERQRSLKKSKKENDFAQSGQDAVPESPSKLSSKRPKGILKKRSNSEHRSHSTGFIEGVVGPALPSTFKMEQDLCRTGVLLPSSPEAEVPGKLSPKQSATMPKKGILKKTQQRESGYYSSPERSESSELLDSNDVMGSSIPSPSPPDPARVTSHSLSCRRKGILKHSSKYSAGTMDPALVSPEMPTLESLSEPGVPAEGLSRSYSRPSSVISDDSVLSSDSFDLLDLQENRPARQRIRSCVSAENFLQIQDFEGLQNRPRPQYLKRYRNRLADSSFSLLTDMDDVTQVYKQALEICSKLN
Sequence of Rhodopsin kinase GRK7 (Homo sapiens) (Q8WTQ7 whole entry, the tested form may be a part): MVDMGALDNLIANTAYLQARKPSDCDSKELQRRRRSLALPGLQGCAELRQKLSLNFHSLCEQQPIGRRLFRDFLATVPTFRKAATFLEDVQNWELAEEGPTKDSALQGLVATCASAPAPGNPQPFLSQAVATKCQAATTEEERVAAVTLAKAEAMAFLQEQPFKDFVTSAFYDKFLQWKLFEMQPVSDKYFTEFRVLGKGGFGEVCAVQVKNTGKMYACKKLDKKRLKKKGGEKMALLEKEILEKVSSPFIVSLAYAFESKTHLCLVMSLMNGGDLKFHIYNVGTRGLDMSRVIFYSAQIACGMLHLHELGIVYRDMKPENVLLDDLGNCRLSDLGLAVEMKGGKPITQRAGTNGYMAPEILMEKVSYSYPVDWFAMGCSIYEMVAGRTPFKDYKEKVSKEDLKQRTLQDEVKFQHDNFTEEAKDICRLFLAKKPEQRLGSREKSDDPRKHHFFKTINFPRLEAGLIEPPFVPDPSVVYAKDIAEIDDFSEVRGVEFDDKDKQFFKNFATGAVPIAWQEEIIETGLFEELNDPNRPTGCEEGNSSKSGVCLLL
Sequence of Activin receptor type-1 (Homo sapiens) (Q04771 whole entry): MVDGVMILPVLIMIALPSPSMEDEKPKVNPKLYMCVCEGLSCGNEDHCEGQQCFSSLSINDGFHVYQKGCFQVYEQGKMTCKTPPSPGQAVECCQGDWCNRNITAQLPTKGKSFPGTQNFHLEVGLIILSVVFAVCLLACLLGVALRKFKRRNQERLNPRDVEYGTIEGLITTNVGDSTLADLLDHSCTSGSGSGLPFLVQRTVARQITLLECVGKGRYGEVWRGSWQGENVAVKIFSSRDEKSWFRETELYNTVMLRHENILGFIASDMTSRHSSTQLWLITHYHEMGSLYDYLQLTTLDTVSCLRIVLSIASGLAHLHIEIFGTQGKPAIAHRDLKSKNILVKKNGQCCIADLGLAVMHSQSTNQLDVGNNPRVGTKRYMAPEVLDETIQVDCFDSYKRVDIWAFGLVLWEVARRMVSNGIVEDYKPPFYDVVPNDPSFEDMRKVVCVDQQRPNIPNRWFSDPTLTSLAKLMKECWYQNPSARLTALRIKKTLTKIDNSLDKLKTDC
Sequence of Eukaryotic translation initiation factor 2-alpha kinase 3 (Homo sapiens) (Q9NZJ5 whole entry, the tested form may be a part): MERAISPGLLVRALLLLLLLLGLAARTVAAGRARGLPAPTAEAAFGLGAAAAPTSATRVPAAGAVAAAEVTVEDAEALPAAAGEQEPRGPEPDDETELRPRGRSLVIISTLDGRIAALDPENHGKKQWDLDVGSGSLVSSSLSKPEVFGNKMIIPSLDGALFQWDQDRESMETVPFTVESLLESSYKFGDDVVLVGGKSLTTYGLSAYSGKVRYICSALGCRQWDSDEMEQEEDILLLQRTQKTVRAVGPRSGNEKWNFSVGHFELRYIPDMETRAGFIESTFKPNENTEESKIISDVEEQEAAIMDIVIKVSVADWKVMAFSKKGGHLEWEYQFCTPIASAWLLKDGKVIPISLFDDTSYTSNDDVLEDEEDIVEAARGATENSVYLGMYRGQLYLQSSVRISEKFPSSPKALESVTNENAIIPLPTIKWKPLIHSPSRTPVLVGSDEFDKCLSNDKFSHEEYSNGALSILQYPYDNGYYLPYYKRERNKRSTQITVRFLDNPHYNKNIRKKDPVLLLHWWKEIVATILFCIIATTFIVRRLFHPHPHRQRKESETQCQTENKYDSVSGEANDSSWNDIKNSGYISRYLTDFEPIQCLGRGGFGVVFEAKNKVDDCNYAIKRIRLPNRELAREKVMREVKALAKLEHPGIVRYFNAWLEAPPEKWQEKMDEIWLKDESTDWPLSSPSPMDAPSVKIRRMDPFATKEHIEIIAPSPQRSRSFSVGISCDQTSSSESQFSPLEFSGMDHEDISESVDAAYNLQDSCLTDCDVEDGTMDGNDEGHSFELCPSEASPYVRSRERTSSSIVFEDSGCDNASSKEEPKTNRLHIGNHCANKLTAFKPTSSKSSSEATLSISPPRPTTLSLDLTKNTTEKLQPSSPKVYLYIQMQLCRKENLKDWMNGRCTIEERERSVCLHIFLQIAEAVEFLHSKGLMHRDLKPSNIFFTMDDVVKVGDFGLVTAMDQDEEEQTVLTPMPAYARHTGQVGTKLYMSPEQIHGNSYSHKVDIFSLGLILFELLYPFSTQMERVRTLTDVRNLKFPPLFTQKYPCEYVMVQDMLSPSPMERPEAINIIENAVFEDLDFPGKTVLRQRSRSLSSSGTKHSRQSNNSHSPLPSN
Sequence of FKBP12A/mTOR (Homo sapiens) (P62942 2-108 limits assumed, other chains not shown): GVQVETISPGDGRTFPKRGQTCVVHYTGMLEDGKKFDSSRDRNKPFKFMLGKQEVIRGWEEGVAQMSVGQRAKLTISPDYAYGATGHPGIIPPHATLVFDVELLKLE
Sequence of Mast/stem cell growth factor receptor Kit (Homo sapiens), P10721 [V654A] (P10721 whole entry V654A): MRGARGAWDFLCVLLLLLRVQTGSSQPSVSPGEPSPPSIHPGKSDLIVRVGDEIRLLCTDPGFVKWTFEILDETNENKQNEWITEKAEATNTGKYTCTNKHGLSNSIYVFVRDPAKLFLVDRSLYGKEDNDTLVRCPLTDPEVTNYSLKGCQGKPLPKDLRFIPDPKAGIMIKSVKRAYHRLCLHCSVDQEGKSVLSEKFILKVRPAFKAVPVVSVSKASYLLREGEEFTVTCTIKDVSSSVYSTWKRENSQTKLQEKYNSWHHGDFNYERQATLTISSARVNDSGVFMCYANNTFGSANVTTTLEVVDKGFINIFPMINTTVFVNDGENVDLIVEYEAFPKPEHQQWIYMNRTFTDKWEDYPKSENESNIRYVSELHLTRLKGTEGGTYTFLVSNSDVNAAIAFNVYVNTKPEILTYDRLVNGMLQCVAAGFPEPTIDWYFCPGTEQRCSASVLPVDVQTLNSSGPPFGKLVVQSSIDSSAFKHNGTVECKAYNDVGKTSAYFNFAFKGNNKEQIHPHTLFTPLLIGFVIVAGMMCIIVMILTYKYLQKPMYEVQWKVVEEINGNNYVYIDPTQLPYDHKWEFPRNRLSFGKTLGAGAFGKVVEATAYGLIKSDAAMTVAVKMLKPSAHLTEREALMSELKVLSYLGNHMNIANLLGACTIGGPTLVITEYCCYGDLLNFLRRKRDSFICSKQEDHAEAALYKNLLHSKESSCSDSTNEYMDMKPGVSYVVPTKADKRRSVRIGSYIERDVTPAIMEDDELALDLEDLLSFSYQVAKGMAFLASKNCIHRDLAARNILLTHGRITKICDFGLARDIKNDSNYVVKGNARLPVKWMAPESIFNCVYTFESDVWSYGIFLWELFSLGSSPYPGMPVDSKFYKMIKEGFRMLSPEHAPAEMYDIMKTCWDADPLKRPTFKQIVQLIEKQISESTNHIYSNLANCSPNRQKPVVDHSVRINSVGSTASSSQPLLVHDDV
Sequence of Fibroblast growth factor receptor 1 (Homo sapiens) (P11362 22-822 limits assumed): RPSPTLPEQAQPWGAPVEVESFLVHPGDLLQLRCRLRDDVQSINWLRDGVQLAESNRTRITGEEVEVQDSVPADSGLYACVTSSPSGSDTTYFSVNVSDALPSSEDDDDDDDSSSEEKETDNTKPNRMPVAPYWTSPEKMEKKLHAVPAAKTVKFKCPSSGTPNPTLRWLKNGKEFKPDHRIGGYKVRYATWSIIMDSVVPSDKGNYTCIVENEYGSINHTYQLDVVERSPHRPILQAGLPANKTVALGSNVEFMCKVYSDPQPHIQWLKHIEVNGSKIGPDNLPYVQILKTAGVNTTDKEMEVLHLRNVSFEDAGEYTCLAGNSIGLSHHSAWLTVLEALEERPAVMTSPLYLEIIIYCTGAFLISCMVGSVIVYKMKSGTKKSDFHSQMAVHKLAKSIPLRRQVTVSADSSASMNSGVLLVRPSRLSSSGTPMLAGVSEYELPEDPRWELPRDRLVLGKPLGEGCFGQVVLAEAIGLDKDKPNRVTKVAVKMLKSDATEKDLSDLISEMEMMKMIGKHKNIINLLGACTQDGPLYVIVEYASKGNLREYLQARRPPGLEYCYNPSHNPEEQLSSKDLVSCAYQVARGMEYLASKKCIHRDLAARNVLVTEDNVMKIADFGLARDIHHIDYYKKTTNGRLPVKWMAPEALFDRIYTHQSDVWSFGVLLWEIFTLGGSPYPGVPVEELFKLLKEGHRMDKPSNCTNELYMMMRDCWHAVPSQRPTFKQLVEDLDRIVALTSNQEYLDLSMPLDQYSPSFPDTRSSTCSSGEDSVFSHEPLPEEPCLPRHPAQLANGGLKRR

Consider `N=C1NC(=O)/C(=C\c2ccc(-c3cccc([N+](=O)[O-])c3)o2)S1`, for which the Activity in experiment [1] was 107%; in experiment [2], 96%; in experiment [3], 99%; in experiment [4] it was 107%; in [5] it was 93%; in experiment [6] it was 101%. Besides, the Activity in experiment [7] worked out at 99%; in experiment [8], 101%; in experiment [9], 110%; in experiment [10], 98%; in experiment [11], 79%; in experiment [12] it was 106%. The Activity was determined as 99% in experiment [13]; 55% in experiment [14]; 92% in experiment [15]; 109% in experiment [16]; 83% in experiment [17]; 90% in experiment [18]. Moreover, the Activity in experiment [19] was 108%; in experiment [20], 80%; in experiment [21], 94%.
Turning to `C=CCOC(=O)c1cc(-c2ccc(/C=C3/NC(=S)NC3=O)o2)ccc1Cl`, the Activity came to 104% in experiment [1]; 98% in experiment [2]; 113% in experiment [3]; 97% in experiment [4]; 98% in experiment [5]; 105% in experiment [6]. Further, the Activity in experiment [7] stood at 79%; in experiment [8], 102%; in experiment [9], 101%; in experiment [10], 92%; in experiment [11] it was 91%; in [12], 95%. Moreover, the Activity was 95% in experiment [13]; 45% in [14]; 85% in experiment [15]; 96% in [16]; 86% in experiment [17]; 98% in experiment [18]. The Activity in experiment [19] came to 95%; in experiment [20] it was 110%; in experiment [21], 98%.
